Results published in BindingDB's records for patent WO2022103411 (Genentech, 2022).

Assays:
[1] = target: T1, von Hippel-Lindau disease tumor suppressor (Homo sapiens, UniProt P40337); test: VHL HEK-293 BRET Assay
Protocol: The VHL NanoBRET Target Engagement Assay analyzes the apparent affinity of test compounds for VHL in cells by competitive displacement of a VHL NanoBRET tracer reversibly bound to a NanoLuc VHL fusion protein stably expressed in the cells. […] 50 nL of control compound (lOmM; parental unlabeled VHL antagonist; see structure below) and 50 nL of DMSO (negative control) were dispensed into the appropriate control wells. DMSO was backfilled to a final volume of 50 nL as required. […] Max Signal control wells consisted of DMSO only treated wells. Minimum Signal control wells contained of 10 uM parental unlabeled VHL antagonist (control compound - see structure below). […] Background Signal control wells were prepared without tracer for background correction steps. […] The raw BRET ratio values were calculated by dividing the acceptor emission value (610 nm) by the donor emission value (460nm) for each sample. To correct for background, the BRET ratio in the absence of tracer (average of no-tracer control samples) was subtracted from the BRET ratio of each sample. Raw BRET units were converted to milliBRET units (mBU) by multiplying each raw BRET value by 1,000. The normalized NanoBRET signal was calculated relative to the Max Signal control wells (DMSO treated control wells) and the Minimum Signal control wells. Percentage inhibition was calculated relative to the Minimum Signal control and Maximum Signal control wells. IC50 values were derived by four parameter curve fitting using the Robust method.

[2] = target: T1, von Hippel-Lindau disease tumor suppressor; test: Fluorescence Polarization (FP) VHL Binding Assay
Protocol: The binding of test compounds to the VHL Elongin B/C complex was measured using a fluorescence polarization tracer competition assay. […] A VHL fluorescence polarization probe consisted of a VHL ligand coupled to carboxytetramethylrhodamine (TAMRA); (2S,4R)-N-(2-(2-(3',6'-bis(dimethylamino)-3-oxo-3H-spiro[isobenzofuran-l,9'-xanthene]-5-carboxamido)ethoxy)-4-(4-methylthiazol-5-yl)benzyl)-4-hydroxy-l-((R)-3-methyl-2-(3-methylisoxazol-5-yl)butanoyl)pyrrolidine-2-carboxamide. […] DMSO was dispensed into wells designated for “VHL control” (without compound) wells. The “Assay Buffer” consisted of 50 mM Tris pH 8.0, 120 mM NaCl, 0.005% Nonidet P-40, and 1% DMSO (v/v). […] Assay Buffer was also dispensed into “no VHL control” wells using the same method. […] “Post-assay” fluorescence polarization measurements were made as described for the “pre-assay” fluorescence measurement. Fluorescence polarization was calculated for each sample; taking into account the “pre-assay” fluorescence measurements and subtracting the fluorescence signal of the compound/VHL only (“pre-assay”) measurements from the “post-assay” fluorescence polarization measurements, for each plane of polarization. The data were analyzed using Genedata Screener software and normalized to the “no VHL control” and “VHL control” (without compound). IC50 values were calculated using a four parameter curve fit (Robust method).

T1 sequence (P40337 whole entry): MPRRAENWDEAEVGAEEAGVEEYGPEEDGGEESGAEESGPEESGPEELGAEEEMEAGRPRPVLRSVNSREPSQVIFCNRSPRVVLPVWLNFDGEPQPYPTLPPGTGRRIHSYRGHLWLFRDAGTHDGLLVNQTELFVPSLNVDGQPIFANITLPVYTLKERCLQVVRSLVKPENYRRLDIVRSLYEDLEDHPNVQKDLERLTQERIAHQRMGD

| IC50 [1] | IC50 [2] | SMILES |
| --- | --- | --- |
| 310 nM |  | Cc1ncsc1-c1ccc(CNC(=O)C2C[C@H](O)CN2C(=O)[C@@H](n2cc(C3(c4cn([C@H](C(=O)N5C[C@H](O)C[C@H]5C(=O)NCc5ccc(-c6scnc6C)cc5)C(C)(C)C)nn4)CC3)nn2)C(C)(C)C)cc1 (stereo not given in full) [WO2022103411, Compound 31] |
| 6250 nM |  | COC(=O)c1nnn([C@H](C(=O)N2C[C@H](O)C[C@H]2C(=O)N[C@H](Cc2ccc(-c3ccccc3)cc2)C(N)=O)C(C)C)c1C [WO2022103411, Compound 34] |
| 1620 nM |  | COC(=O)c1nnn([C@@H](C(=O)N2C[C@H](O)C[C@H]2C(=O)N[C@H](Cc2ccc(-c3ccccc3)cc2)C(N)=O)C(C)C)c1C [WO2022103411, Compound 35] |
| 300 nM |  | CC(C)[C@@H](C(=O)N1C[C@H](O)C[C@H]1C(=O)N[C@H](Cc1ccc(-c2ccccc2)cc1)C(N)=O)n1nnc2ccccc21 [WO2022103411, Compound 38] |
| < 5 nM |  | Cc1ncsc1-c1ccc2c(c1)CCCC[C@@H]2NC(=O)[C@@H]1C[C@@H](O)CN1C(=O)[C@@H](n1cc(C2CC2)nn1)C(C)(C)C [WO2022103411, Compound 52] |
| 200 nM |  | Cc1ncsc1-c1ccc2c(c1)CCCC[C@H]2NC(=O)[C@@H]1C[C@@H](O)CN1C(=O)[C@@H](n1cc(C2CC2)nn1)C(C)(C)C [WO2022103411, Compound 53] |
| 150 nM | 150 nM | CC(C)(C)[C@@H](C(=O)N1C[C@H](O)CC1C(=O)N[C@H](Cc1ccc(-c2ccccc2)cc1)C(N)=O)n1cc(C2CC2)nn1 (stereo not given in full) [WO2022103411, Example S3] |
| 190 nM |  | NC(=O)[C@@H](Cc1ccc(-c2ccccc2)cc1)NC(=O)C1C[C@@H](O)CN1C(=O)[C@H](C1CCC1)n1cc(C2CC2)nn1 (stereo not given in full) [WO2022103411, Example S4] |
| 130 nM |  | CCC(C)[C@@H](C(=O)N1C[C@H](O)CC1C(=O)N[C@H](Cc1ccc(-c2ccccc2)cc1)C(N)=O)n1cc(C2CC2)nn1 (stereo not given in full) [WO2022103411, Example S5] |
| 100 nM |  | CCC(C)(C)[C@@H](C(=O)N1C[C@H](O)CC1C(=O)N[C@H](Cc1ccc(-c2ccccc2)cc1)C(N)=O)n1cc(C2CC2)nn1 (stereo not given in full) [WO2022103411, Example S6] |
| 110 nM |  | C=CC(C)(C)[C@@H](C(=O)N1C[C@H](O)CC1C(=O)N[C@H](Cc1ccc(-c2ccccc2)cc1)C(N)=O)n1cc(C2CC2)nn1 (stereo not given in full) [WO2022103411, Example S7] |
| 20700 nM | 80 nM | CC(=O)NCCOCc1cn([C@H](C(=O)N2C[C@H](O)CC2C(=O)N[C@H](Cc2ccc(-c3ccccc3)cc2)C(N)=O)C(C)(C)C)nn1 (stereo not given in full) [WO2022103411, Example S14] |
| < 5 nM |  | Cc1ncsc1-c1ccc([C@H](C)NC(=O)C2C[C@@H](O)CN2C(=O)[C@H](C2C3CC4CC(C3)CC2C4)n2cc(C3CC3)nn2)cc1 (stereo not given in full) [WO2022103411, Example S20] |
| < 5 nM |  | CCC(C)(C)[C@@H](C(=O)N1C[C@H](O)C[C@H]1C(=O)N[C@@H](C)c1ccc(-c2scnc2C)cc1)n1cc(C2CC2)nn1 [WO2022103411, Example S21] |
| 20 nM |  | Cc1ncsc1-c1ccc(C(C)NC(=O)C2C[C@@H](O)CN2C(=O)[C@H](C2C3CC4CC(C3)CC2C4)n2cc(C3CC3)nn2)c(Cl)c1 (stereo not given in full) [WO2022103411, Example S23] |
| 10 nM |  | Cc1ncsc1-c1ccc(CNC(=O)[C@@H]2C[C@@H](O)CN2C(=O)[C@@H](n2cc(C3CC3)nn2)C(C)(C)C)cc1 [WO2022103411, Example S24] |
| < 5 nM |  | Cc1ncsc1-c1ccc(CNC(=O)[C@@H]2C[C@@H](O)CN2C(=O)[C@H](C2CCCCC2)n2cc(C3CC3)nn2)cc1 [WO2022103411, Example S25] |
| 20 nM |  | Cc1ncsc1-c1ccc(CNC(=O)[C@@H]2C[C@@H](O)CN2C(=O)[C@@H](n2cc(Cc3ccccc3)nn2)C(C)(C)C)cc1 [WO2022103411, Example S27] |
